# Laboratory results published in US7390903B2, “Thieno-pyridine derivatives as allosteric enhancers of the GABAB receptors” (Hoffmann-La Roche Inc., priority 2004, dated 2008).
# Tests used:
# human GABABR1aR2a = target: T1, human GABABR1aR2a (Homo sapiens, UniProt O75899+Q9UBS5); experiment: Intracellular Ca2+ mobilization assay in CHO-GABABR1aR2a-Gα16 cell (FLIPR); format: cell-based; conditions: for GABA shift Log [EC50(GABA + 10 μM cp)/EC50(GABA alone)]: GABA 0.0003-30 μM in absence and presence of 10 μM enhancer; for Emax: enhancer 0.001-30 μM in the presence of 10 nM GABA (EC10), enhancer applied 15 min before GABA, read-out: Emax (%) at 10 nM GABA alone = 0% 10 μM GABA alone = 100%; for EC50: enhancer concentration-response (0.001-30 μM) in the presence of 10 nM GABA
# T1 construct: expressed in transfected cells
# T1 sequence (Q9UBS5 15-961 limits assumed): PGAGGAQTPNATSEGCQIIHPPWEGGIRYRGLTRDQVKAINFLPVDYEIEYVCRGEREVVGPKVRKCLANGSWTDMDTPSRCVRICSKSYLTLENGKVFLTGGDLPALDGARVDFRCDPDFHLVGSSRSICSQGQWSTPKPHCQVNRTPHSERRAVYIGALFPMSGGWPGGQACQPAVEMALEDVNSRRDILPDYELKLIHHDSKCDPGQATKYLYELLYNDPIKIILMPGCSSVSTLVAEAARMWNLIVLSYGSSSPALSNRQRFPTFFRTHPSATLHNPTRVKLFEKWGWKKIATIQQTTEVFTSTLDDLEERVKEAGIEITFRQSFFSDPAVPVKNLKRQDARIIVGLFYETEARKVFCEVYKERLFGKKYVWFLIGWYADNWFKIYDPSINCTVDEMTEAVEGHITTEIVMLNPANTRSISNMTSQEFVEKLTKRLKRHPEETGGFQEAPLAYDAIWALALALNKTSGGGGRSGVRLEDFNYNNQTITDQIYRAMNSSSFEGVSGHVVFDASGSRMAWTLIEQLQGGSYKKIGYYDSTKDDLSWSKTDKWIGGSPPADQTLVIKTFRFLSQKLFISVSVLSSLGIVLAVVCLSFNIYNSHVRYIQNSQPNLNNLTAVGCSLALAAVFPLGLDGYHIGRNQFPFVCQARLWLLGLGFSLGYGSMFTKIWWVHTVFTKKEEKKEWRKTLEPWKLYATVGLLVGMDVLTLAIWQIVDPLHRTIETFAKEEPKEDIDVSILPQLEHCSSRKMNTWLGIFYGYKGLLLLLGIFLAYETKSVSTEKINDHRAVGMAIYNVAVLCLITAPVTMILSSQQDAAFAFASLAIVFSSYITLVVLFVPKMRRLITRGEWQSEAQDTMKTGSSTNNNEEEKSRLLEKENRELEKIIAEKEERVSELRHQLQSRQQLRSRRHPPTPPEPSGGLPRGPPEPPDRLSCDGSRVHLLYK
# T1 sequence (O75899 42-941): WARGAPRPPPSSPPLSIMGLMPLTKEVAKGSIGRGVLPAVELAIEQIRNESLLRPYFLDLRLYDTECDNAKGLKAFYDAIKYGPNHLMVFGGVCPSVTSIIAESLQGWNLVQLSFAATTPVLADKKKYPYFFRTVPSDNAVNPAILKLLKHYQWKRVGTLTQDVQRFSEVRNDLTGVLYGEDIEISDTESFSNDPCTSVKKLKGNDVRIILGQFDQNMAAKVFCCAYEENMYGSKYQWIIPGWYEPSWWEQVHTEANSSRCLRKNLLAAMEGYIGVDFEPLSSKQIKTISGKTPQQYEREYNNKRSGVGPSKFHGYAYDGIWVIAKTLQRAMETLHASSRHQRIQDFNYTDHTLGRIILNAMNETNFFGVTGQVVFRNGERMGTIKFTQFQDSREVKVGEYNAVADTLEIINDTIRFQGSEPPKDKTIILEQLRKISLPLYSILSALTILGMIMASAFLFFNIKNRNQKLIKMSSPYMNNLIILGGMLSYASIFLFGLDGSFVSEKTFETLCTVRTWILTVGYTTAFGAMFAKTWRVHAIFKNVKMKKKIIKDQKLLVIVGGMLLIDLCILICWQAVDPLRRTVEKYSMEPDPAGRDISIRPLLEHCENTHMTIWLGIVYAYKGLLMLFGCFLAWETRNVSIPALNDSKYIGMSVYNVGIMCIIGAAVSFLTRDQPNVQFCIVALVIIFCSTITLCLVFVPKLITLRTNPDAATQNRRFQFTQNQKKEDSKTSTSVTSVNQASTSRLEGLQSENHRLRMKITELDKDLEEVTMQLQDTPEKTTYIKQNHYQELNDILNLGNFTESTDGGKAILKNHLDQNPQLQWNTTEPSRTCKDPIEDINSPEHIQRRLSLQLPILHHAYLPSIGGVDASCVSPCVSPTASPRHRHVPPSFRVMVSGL
# Procedure: Intracellular Ca^2+ Mobilization Assay
# The Chinese Hamster Ovary (CHO) cells stably expressing human GABABR1aR2a and Gα16 were seeded at 5×10^4 cells/well in the poly-D-lysine treated, 96-well, black/clear-bottomed plates (BD Biosciences, Palo Alto, Calif.). 24 h later, the cells were loaded for 90 min at 37° C. with 4 μM Flou-4 acetoxymethyl ester (Catalog No. F-14202, Molecular Probes, Eugene, Oreg.) in loading buffer (1×HBSS, 20 mM HEPES, 2.5 mM Probenecid). Hanks' Balanced Salt Solution (HBSS) (10×) (catalog No. 14065-049) and HEPES (1M) (catalog No. 15630-056) were purchased from Invitrogen, Carlsbad, Calif. Probenecid (250 mM) (catalog No. P8761) was from Sigma, Buchs, Switzerland. The cells were washed five times with loading buffer to remove excess dye and intracellular calcium mobilization, [Ca^2+]i were measured using a Fluorometric Imaging Plate Reader (FLIPR, Molecular Devices, Menlo Park, Calif.) as described previously (Porter et al., Br. J. Pharmacol., 128, 13-20, 1999). The enhancers were applied 15 min before the application of the GABA. For GABA shift assay, concentration-response curves of GABA (0.0003-30 μM) were determined in the absence and presence of 10 μM enhancer. The GABA-shift is defined as Log [EC50 (GABA+10 μM enhancer)/EC50 (GABA alone)]. The % maximum enhancing effect (% Emax) and potency (EC50 value) of each enhancer was determined from concentration-response curve of the enhancer (0.001-30 μM) in the presence of 10 nM GABA (EC10). Responses were measured as peak increase in fluorescence minus basal, normalized to the maximal stimulatory effect induced by 10 μM GABA alone (considered 100%) and 10 nM GABA alone (considered 0%). The data were fitted with the equation Y=100+(Max−100)/(1+(EC50/[drug])^n) where Max is the maximum effect, EC50 the concentration eliciting a half-maximum effect and n the Hill slope.
# [1] = PO, cited from earlier work
# [2] = passive avoidance behavioral test in mice and rats; cited from earlier work
# [3] = cited from earlier work
# [4] = rats; cited from earlier work
# GABABR1R2 = GABABR1R2 (Homo sapiens, UniProt O75899+Q9UBS5); conditions: cited from earlier work; for effect on their own at GABAB receptors: absence of GABA; for effect on potency and maximal efficacy of GABA: in concert with endogenous GABA, GABABR1R2
# GABABR1R2, sequence (Q9UBS5 20-961): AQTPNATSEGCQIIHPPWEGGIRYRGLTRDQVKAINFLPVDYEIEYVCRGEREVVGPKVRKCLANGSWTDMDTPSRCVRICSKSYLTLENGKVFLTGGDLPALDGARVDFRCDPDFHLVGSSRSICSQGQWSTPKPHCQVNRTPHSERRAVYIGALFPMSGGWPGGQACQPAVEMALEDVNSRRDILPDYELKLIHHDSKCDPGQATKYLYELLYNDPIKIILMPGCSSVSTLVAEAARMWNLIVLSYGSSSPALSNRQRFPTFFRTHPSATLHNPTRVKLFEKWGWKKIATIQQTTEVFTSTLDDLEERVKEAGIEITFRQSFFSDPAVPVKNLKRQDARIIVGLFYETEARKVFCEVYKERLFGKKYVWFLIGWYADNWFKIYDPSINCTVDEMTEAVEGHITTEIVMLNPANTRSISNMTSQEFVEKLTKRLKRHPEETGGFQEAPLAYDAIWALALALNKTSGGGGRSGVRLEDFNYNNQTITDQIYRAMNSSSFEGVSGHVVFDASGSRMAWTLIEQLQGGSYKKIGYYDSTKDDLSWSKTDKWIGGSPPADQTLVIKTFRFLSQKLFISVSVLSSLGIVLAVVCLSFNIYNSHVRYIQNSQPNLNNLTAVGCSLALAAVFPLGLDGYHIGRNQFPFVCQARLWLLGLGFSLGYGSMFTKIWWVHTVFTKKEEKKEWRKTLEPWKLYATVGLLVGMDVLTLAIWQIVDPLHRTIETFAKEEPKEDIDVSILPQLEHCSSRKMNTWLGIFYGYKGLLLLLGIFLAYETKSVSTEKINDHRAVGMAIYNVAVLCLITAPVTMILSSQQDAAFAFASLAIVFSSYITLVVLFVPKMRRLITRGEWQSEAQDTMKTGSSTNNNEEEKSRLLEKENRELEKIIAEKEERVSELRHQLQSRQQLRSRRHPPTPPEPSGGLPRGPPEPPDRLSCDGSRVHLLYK
# GABABR1R2, sequence (O75899 42-941): as the sequence (O75899 42-941) above
# [5] = panic disorder patients; Hamilton, Zung anxiety scales, Katz-R nervousness subscale; cited from earlier work
# [6] = small group of veterans with chronic, combat-related PTSD; cited from earlier work
# [7] = rat; cited from earlier work
# [8] = preclinical; cited from earlier work
SMILES,GABA shift Log [EC50(GABA + 10 μM cp)/EC50(GABA alone)] (human GABABR1aR2a),Emax (human GABABR1aR2a),EC50 (human GABABR1aR2a),also measured
"COC(=O)c1ccc(-c2c(C(=O)C3CC3)c(C)nc3sc4c(c23)CCCCC4)cc1 [Example 35, 4-(3-Cyclopropanecarbonyl-2-methyl-6,7,8,9-tetrahydro-H-10-thia-1-aza-benzo [a]azulen-4-yl)-benzoic acid methyl ester]",−0.91,56%,1.2 µM,
"CC(=O)c1c(C)nc2sc3cnccc3c2c1-c1ccccc1 [Example 23, 1-(2-Methyl-4-phenyl-9-thia-1,7-diaza-fluoren-3-yl)-ethanone]",−0.6,35%,1.3 µM,
"CC(=O)c1c(C)nc2sc3c(c2c1-c1ccco1)CCC3 [Example 18, 1-(4-Furan-2-yl-2-methyl-6,7-dihydro-5H-cyclopenta[4,5]thieno[2,3-b]pyridin-3-yl)-ethanone]",−1,58%,0.86 µM,
"COC(=O)N1CCc2c(sc3nc(C)c(C(C)=O)c(-c4ccccc4)c23)C1 [Example 38, 3-Acetyl-2-methyl-4-phenyl-5,8-dihydro-6H-9-thia-1,7-diaza-fluorene-7-carboxylic acid methyl ester]",−0.3,20%,1.4 µM,
"CSc1nc(NC2CCCC2)c([N+](=O)[O-])c(NC2CCCC2)n1 [GS39783, N,N_-dicyclopentyl-2-methylsulfanyl-5-nitro-pyrimidine-4,6-diamine]",,,,"effect on spontaneous locomotor activity, rotarod, body temperature and traction test ([1]; 0.1-200 mg/kg): had no effect; effect on cognition performance [2]: did not have any effect; tolerance after chronic treatment ([3]; 21 days, 10 mg/kg, P.O., once daily, light-dark box and elevated zero maze): No tolerance; anxiolytic-like effects ([3]; elevated plus maze (rat), elevated zero maze (mice and rats), stress-induced hyperthermia (mice)): exhibited anxiolytic-like effects; cocaine self-administration [4]: effective at deceasing cocaine self-administration"
"Cc1nc2sc(Cl)cc2c(-c2ccccc2)c1C(=O)C(F)(F)F [Example 21, 1-(2-Chloro-6-methyl-4-phenyl-thieno[2,3-b]pyridin-5-yl)-2,2,2-trifluoro-ethanone]",−1.1,66%,1.9 µM,
"Cc1nc2sc3c(c2c(-c2ccc(Cl)c(Cl)c2)c1C(=O)C(F)(F)F)CCC3 [Example 1, 1-[4-(3,4-Dichloro-phenyl)-2-methyl-6,7-dihydro-5H-cyclopenta[4,5]thieno[2,3-b]pyridin-3-yl]-2,2,2-trifluoro-ethanone]",−0.3,47%,14.7 µM,
CC(C)(C=O)Cc1cc(C(C)(C)C)c(O)c(C(C)(C)C)c1 [CGP13501],,,,effect on their own at GABAB receptors (GABABR1R2): no effect on their own; effect on potency and maximal efficacy of GABA (GABABR1R2): increase both the potency and maximal efficacy of GABA
"NCC(CC(=O)O)c1ccc(Cl)cc1 (stereo not drawn) [Baclofen, β-chlorophenyl GABA]",,,,"side effects (spontaneous locomotor activity, rotarod, body temperature, traction test) ([1]; 2.5-15 mg/kg): showed these side effects; number of panic attacks and symptoms of anxiety [5]: significantly effective in reducing the number of panic attacks and symptoms of anxiety; treatment of PTSD [6]: effective and well-tolerated treatment; reversal of reduction in prepulse inhibition (PPI) induced by dizocilpine [7]: able to reverse the reduction in prepulse inhibition"
"Cc1nc2sc(C)c(C)c2c(-c2ccccc2)c1C(=O)C(F)(F)F [Example 16, 2,2,2-Trifluoro-1-(2,3,6-trimethyl-4-phenyl-thieno[2,3-b]pyridin-5-yl)-ethanone]",−0.9,69%,2.4 µM,
"Cc1nc2sc3c(c2c(-c2cccs2)c1C(=O)C(F)(F)F)CCC3 [Example 2, 2,2,2-Trifluoro-1-(2-methyl-4-thiophen-2-yl-6,7-dihydro-5H-cyclopenta[4,5]thieno[2,3-b]pyridin-3-yl)-ethanone]",−0.9,59%,1.3 µM,
"CC(C)(CO)Cc1cc(C(C)(C)C)c(O)c(C(C)(C)C)c1 [CGP7930, 2,6-di-tert-butyl-4-(3-hydroxy-2,2-dimethyl-propyl)-phenol]",,,,cocaine self-administration [4]: effective at deceasing cocaine self-administration; efficacy for treatment of GERD [8]: found to be effective; effect on their own at GABAB receptors (GABABR1R2): no effect on their own; effect on potency and maximal efficacy of GABA (GABABR1R2): increase both the potency and maximal efficacy of GABA
